The source of these data is US10307389B2, “Succinate prodrugs for use in the treatment of lactic acidosis or drug-induced side-effects due to Complex I-related impairment of mitochondrial oxidative phosphorylation” (NEUROVIVE PHARMACEUTICAL AB, priority 2014, dated 2019).

Series [1] has as its system cells with inhibited respiratory complex I. The experiment in a line: Screening assay 1: enhancement of mitochondrial energy producing function in cells with inhibited respiratory complex I. Conditions: screening assay 1, complex I inhibited with rotenone 2 μM. In kind it is cell-based, human. Details: key: (+): Brackets [( )] indicate an intermediate effect, i.e. (+++) is between ++ and +++; graded either +, ++ or +++ in increasing order of potency; (++): Brackets [( )] indicate an intermediate effect, i.e. (+++) is between ++ and +++; graded either +, ++ or +++ in increasing order of potency; (+++) is between ++ and +++; graded either +, ++ or +++ in increasing order of potency. Here is the method: (§1) Measurement of mitochondrial respirationise performed in a high-resolution oxygraph (Oxygraph-2k, Oroboros Instruments, Innsbruck, Austria) at a constant temperature of 37° C. Isolated human platelets, white blood cells, fibroblasts, human heart muscle fibers or other cell types containing live mitochondria are suspended in a 2 mL glass chamber at a concentration sufficient to yield oxygen consumption in the medium of 10 pmol O2 s^−1 mL^−1.
Cells are placed in a buffer containing 110 mM sucrose, HEPES 20 mM, taurine 20 mM, K-lactobionate 60 mM, MgCl2 3 mM, KH2PO4 10 mM, EGTA 0.5 mM, BSA 1 g/l, pH 7.1. […] Compounds dissolved in DMSO are titrated in a range of 10 μM to 10 mM final concentration. Subsequently, cell membranes are permeabilised with digitonin (1 mg/1*10^6 plt) to allow entry of extracellularly released energy substrate or cell impermeable energy substrates. After stabilized respiration, Succinate 10 mM is added as a reference to enable respiration downstream of complex I. After the respiration stabilized the experiment is terminated by addition of Antimycin at final concentration 1 μg/mL and any residual non-mitochondrial oxygen consumption is measured. An increase in respiration rate in the described protocol is tightly coupled to ATP synthesis by oxidative phosphorylation unless cells are uncoupled (i.e. proton leak without production of ATP). Uncoupling is tested for by addition of the ATP synthase inhibitor oligomycin (1-2 μg mL^−1) in a protocol 3 where the extent of uncoupling corresponds to the respiratory rate following oligomycin addition.

The test system of series [2] is intact cells. The experiment in a line: Screening assay 2: enhancement and inhibition of mitochondrial energy producing function in intact cells (FCCP). Details: key to Convergent (FCCP): increase in mitochondrial oxygen consumption: (+): Brackets [( )] indicate an intermediate effect, i.e. (+++) is between ++ and +++; graded either +, ++ or +++ in increasing order of potency; (++): Brackets [( )] indicate an intermediate effect, i.e. (+++) is between ++ and +++; graded either +, ++ or +++ in increasing order of potency; (+++) is between ++ and +++; graded either +, ++ or +++ in increasing order of potency. The format is cell-based, human. Conditions: for Toxicity: lowest concentration during compound titration at which a decrease in oxygen consumption is seen: screening assay 2; for Convergent (FCCP): increase in mitochondrial oxygen consumption: screening assay 2, uncoupled conditions. Here is the method:
as §1
In the second protocol the same buffer is used as described above. After basal respiration is established, the mitochondrial uncoupler FCCP is added at a concentration of 2 nM to increase metabolic demand.

For series [3], the system named is intact cells. The experiment in a line: Screening assay 3: uncoupling in intact cells. As to Uncoupling: level of oxygen consumption after addition of oligomycin: tested at 1000 µM. The format is cell-based, human. Details: key: (+): Brackets [( )] indicate an intermediate effect, i.e. (+++) is between ++ and +++; graded either +, ++ or +++ in increasing order of potency; (++): Brackets [( )] indicate an intermediate effect, i.e. (+++) is between ++ and +++; graded either +, ++ or +++ in increasing order of potency; (+++) is between ++ and +++; graded either +, ++ or +++ in increasing order of potency. Conditions: for Uncoupling: level of oxygen consumption after addition of oligomycin: screening assay 3; for Convergent (Routine): increase in mitochondrial oxygen consumption: screening assay 3, 1 mM compound. How it is done:
Measurement of mitochondrial respirationise performed in a high-resolution oxygraph (Oxygraph-2k, Oroboros Instruments, Innsbruck, Austria) at a constant temperature of 37° C. […] In the third protocol, the same buffer as described above is used. […] Subsequently, the ATP-synthase-inhibitor Oligomycin is added. A reduction in respiration is a measure of how much of the oxygen consumption that is coupled to ATP synthesis. No, or only a slight, reduction indicate that the compound is inducing a proton leak over the inner mitochondrial membrane. The uncoupler FCCP is then titrated to induce maximum uncoupled respiration. […] The experiment is terminated by the addition of 1 μg/mL of the complex III inhibitor Antimycin to measure non-mitochondrial oxygen consumption.

Series [4] deals with intact human blood cells with inhibited complex I in human plasma. The experiment in a line: Screening assay 4: cells with inhibited respiratory complex I in human plasma. In kind it is cell-based. Also on record: key: (+): Brackets [( )] indicate an intermediate effect, i.e. (+++) is between ++ and +++; graded either +, ++ or +++ in increasing order of potency; (++): Brackets [( )] indicate an intermediate effect, i.e. (+++) is between ++ and +++; graded either +, ++ or +++ in increasing order of potency; (+++) is between ++ and +++; graded either +, ++ or +++ in increasing order of potency. Conditions: screening assay 4, complex I inhibited. Here is the method:
Measurement of mitochondrial respirationise performed in a high-resolution oxygraph (Oxygraph-2k, Oroboros Instruments, Innsbruck, Austria) at a constant temperature of 37° C. […] Intact human blood cells are incubated in plasma from the same donor. […] The experiment is terminated by addition of Antimycin at final concentration 1 μg/mL and any residual non-mitochondrial oxygen consumption is measured.

Series [5] concerns intact human platelets. The experiment in a line: Intervention on rotenone- or metformin-induced lactate production with cell-permeable succinate prodrugs. In kind it is cell-based. Conditions: for effect on metformin-induced lactate production: 10 mM metformin, additions of 250 μM each 30 minutes; for effect on rotenone-induced lactate production: 2 μM rotenone, repeated additions of 250 μM. Here is the method:
Lactate levels are determined every 30 min using the Lactate Pro™ 2 blood lactate test meter (Arkray, Alere A B, Lidingö, Sweden) or similar types of measurements. Incubation is performed at 37° C. pH is measured at start, after 4 and after 8 h (or more frequently) of incubation using a Standard pH Meter, e.g. PHM210 (Radiometer, Copenhagen, Denmark). Drug candidates are added to the assay from start or following 30-60 min at concentrations within the range 10 μM-5 mM. […] In order to evaluate the specificity of the drug candidate, it is also tested in combination with a down-stream inhibitor of respiration such as the complex III inhibitor Antimycin at 1 μg/mL, which should abolish the effect of the drug candidate and restore the production of lactate.
Lactate levels were measured in intervals of 30 min with the onset of the experiment.

Entries after “also recorded” stand apart in the source; their conditions may differ.

Take `CCC(=O)N[C@@H](CSC(=O)CCC(=O)O)C(=O)O` [Compound 01-041, (R)-4-(2-carboxy-2-propionamidoethylthio)-4-oxobutanoic acid]: the “CII: increase in mitochondrial oxygen consumption” value (from here on “CII: increase”) in series [1] is given as “++”. For the same compound, in series [2], the “Toxicity: lowest concentration during compound titration at which a decrease in oxygen consumption is seen” value is 5 mM and the “Convergent (FCCP): increase in mitochondrial oxygen consumption” value (“Convergent (FCCP): increase” below) was “+++”. Further, in series [3], the “Uncoupling: level of oxygen consumption after addition of oligomycin” value (“Uncoupling: level of oxygen consumption” for short) is reported as “(+)” and the “Convergent (Routine): increase in mitochondrial oxygen consumption” value (from here on “Convergent (Routine): increase”) is recorded as “+”. Also, in series [4], the “CII (plasma): increase in mitochondrial oxygen consumption” value (“CII (plasma): increase” for short) is recorded as “+”.

Consider `CCC(=O)N[C@@H](CSC(=O)CCC(=O)SC[C@H](NC(=O)CC)C(=O)N(CC)CC)C(=O)N(CC)CC` [Compound 01-185, S,S-bis((R)-3-(diethylamino)-3-oxo-2-propionamidopropyl) butanebis(thioate)], for which, in series [1], the “CII: increase” value is listed as “+”. In addition, in series [2], the “Toxicity: lowest concentration during compound titration at which a decrease in oxygen consumption is seen” value came out at 2 mM and the “Convergent (FCCP): increase” value is “+”. Further, in series [3], the “Uncoupling: level of oxygen consumption” value was “(+)” and the “Convergent (Routine): increase” value is “(+)”. Also, the “CII (plasma): increase” value in series [4] is “+”.

`CCN(CC)C(=O)COCCSC(=O)CCC(=O)O` [Compound 01-193, 4-(2-(2-(diethylamino)-2-oxoethoxy)ethylthio)-4-oxobutanoic acid]: the “CII: increase” value in series [1] is given as “+”. In series [2], the “Toxicity: lowest concentration during compound titration at which a decrease in oxygen consumption is seen” value amounted to 5 mM and the “Convergent (FCCP): increase” value is recorded as “+”. For the same compound, in series [3], the “Uncoupling: level of oxygen consumption” value is recorded as “+” and the “Convergent (Routine): increase” value is “(++)”. In series [4], the “CII (plasma): increase” value is recorded as “(+)”.

With `CCC(=O)N[C@@H](CSC(=O)CCC(=O)SC[C@H](NC(=O)CC)C(=O)OC)C(=O)OC` [Compound 01-205, (R)-methyl 3-(4-((R)-3-methoxy-3-oxo-2-propionamidopropylthio)-4-oxobutanoylthio)-2-propionamidopropanoate], the “CII: increase” value in series [1] is recorded as “++”. Besides, in series [2], the “Toxicity: lowest concentration during compound titration at which a decrease in oxygen consumption is seen” value was 5 mM and the “Convergent (FCCP): increase” value was “++”. Further, in series [3], the “Uncoupling: level of oxygen consumption” value was “(+)” and the “Convergent (Routine): increase” value is listed as “+++”. In series [4], the “CII (plasma): increase” value is “+”.

Regarding succinate [reference compound], the “effect on metformin-induced lactate production” value in series [5] was “did not change this; also recorded: did not reduce”.

For `CC(=O)NCCSC(=O)CCC(=O)O` [Compound 01-108, 4-(2-acetamidoethylthio)-4-oxobutanoic acid], in series [1], the “CII: increase” value was “(++)”. Moreover, in series [2], the “Toxicity: lowest concentration during compound titration at which a decrease in oxygen consumption is seen” value stood at 10 mM and the “Convergent (FCCP): increase” value is reported as “++”. For the same compound, in series [3], the “Uncoupling: level of oxygen consumption” value was “+” and the “Convergent (Routine): increase” value is reported as “++”. The “CII (plasma): increase” value in series [4] is listed as “(+)”.

For the compound `CC(=O)OCOC(=O)CCC(=O)OC(C)OC(C)=O` (centres unmarked) [NV241, Succinic acid 1-acetoxy-ethyl ester acetoxymethyl ester], in series [5], the “effect on rotenone-induced lactate production” value is listed as “attenuated” and the “effect on metformin-induced lactate production” value was “significantly decreased”.

Consider `CCC(=O)NCCSC(=O)CCC(=O)O` [Compound 01-114, 4-oxo-4-(2-propionamidoethylthio)butanoic acid], for which the “CII: increase” value in series [1] is “++”. Besides, in series [2], the “Toxicity: lowest concentration during compound titration at which a decrease in oxygen consumption is seen” value stood at 10 mM and the “Convergent (FCCP): increase” value is “++”. Besides, in series [3], the “Uncoupling: level of oxygen consumption” value was “(+)” and the “Convergent (Routine): increase” value was “+++”. For the same compound, the “CII (plasma): increase” value in series [4] was “+”.

`CC(=O)OC(CCCOC(=O)CCC(=O)O)OC(=O)CCC(=O)O` (centres unmarked) [Compound 01-134]: in series [1], the “CII: increase” value is “(+)”. In series [2], the “Toxicity: lowest concentration during compound titration at which a decrease in oxygen consumption is seen” value is recorded as 10 mM and the “Convergent (FCCP): increase” value is on record as “(+)”. In series [3], the “Uncoupling: level of oxygen consumption” value is given as “(+)” and the “Convergent (Routine): increase” value is “++”. In addition, the “CII (plasma): increase” value in series [4] is “(+)”.

In the case of `CC(=O)OC(CCCN1C(=O)c2ccccc2C1=O)OC(=O)CCC(=O)O` (centres unmarked) [Compound 01-150, 4-(1-acetoxy-4-(1,3-dioxoisoindolin-2-yl)butoxy)-4-oxobutanoic acid], the “CII: increase” value in series [1] is reported as “++”. Further, in series [2], the “Toxicity: lowest concentration during compound titration at which a decrease in oxygen consumption is seen” value is 2 mM and the “Convergent (FCCP): increase” value is “+”. Also, in series [3], the “Uncoupling: level of oxygen consumption” value was “(+)” and the “Convergent (Routine): increase” value is reported as “+++”. The “CII (plasma): increase” value in series [4] is “(+)”.

Take `CC(=O)OC(C)OC(=O)CCC(=O)OC(C)OC(C)=O` (centres unmarked) [NV189, Succinic acid bis-(1-acetoxy-ethyl) ester]: in series [5], the “effect on rotenone-induced lactate production” value is given as “attenuated; also recorded: brought back to normal” and the “effect on metformin-induced lactate production” value is “significantly decreased”.

For `CC(=O)NCC(C)(C)SC(=O)CCC(=O)O` [Compound 01-188, 4-(1-acetamido-2-methylpropan-2-ylthio)-4-oxobutanoic acid], the “CII: increase” value in series [1] is on record as “+”. Moreover, in series [2], the “Toxicity: lowest concentration during compound titration at which a decrease in oxygen consumption is seen” value is reported as 5 mM and the “Convergent (FCCP): increase” value was “+++”. In addition, in series [3], the “Uncoupling: level of oxygen consumption” value is reported as “(+)” and the “Convergent (Routine): increase” value is recorded as “+++”. In addition, the “CII (plasma): increase” value in series [4] is reported as “+”.
